Assay results reported in patent US12351556B2, “Pyridin-2(1H)one derivatives, their preparation and their use for the treatment of pain” (INSTITUT NATIONAL DE LA SANTE ET DE LA RECHERCHE MEDICALE …, priority 2019, dated 2025).
Entries after “also recorded” stand apart in the source; their conditions may differ. Read-outs that look alike come from different tables or passages of the source.

Assays:
[1] = system: panel of 13 protein kinases; assay: ICKP screening, whole panel of 13 protein kinases; type: biochemical, human; conditions: 1 μM
Method: (§1) FIG. 4 illustrates the studies carried out for compounds 67 and 69. Compounds 67 and 69 (FIG. 4B) were evaluated at the International Center For Kinase Profiling (ICKP, Dundee, Scotland) toward a panel of 13 protein kinases. The results (FIG. 4A) were expressed as the mean percentage of residual activity at 1 μM concentration (duplicate assays). Small disks: ≥90%, larger disk: 59%, for both compounds. The tree was generated using the Kinome Render software, and the illustration reproduced courtesy of Cell Signaling Technology, Inc. (www.cellsignal.com) Chartier et al PeerJ 2013, 1:e126.
(§2) Results are expressed as the mean percentage of residual activity at 10 μM (Table 3) or 1 μM (Table 4). They are illustrated on FIGS. 3 and 4.
(§3) The selectivity of compound 69 was evaluated at 1 μM toward another panel containing all four p38 MAPK isoforms, ERK1, ERK2 as well as other protein kinases close to p38α MAPK in the kinome phylogenetic tree (FIG. 4, Table 4). […] Its IC50 toward p38α MAPK was determined, showing a value in the micromolar range (IC50=3.0±0.1 μM).

[2] = target: JNK2 (Homo sapiens (Human), UniProt P45984); assay: ICKP protein kinase panel screening; type: biochemical; conditions: duplicate assays, read-out: mean % residual activity
Method: as §1, §2, §3

[3] = target: p38g MAPK (Homo sapiens (Human), UniProt P53778); assay: ICKP protein kinase panel screening; type: biochemical; conditions: duplicate assays, read-out: mean % residual activity
Method: as §1, §2, §3

[4] = target: p38b MAPK (Homo sapiens (Human), UniProt Q15759); assay: ICKP protein kinase panel screening; type: biochemical; conditions: duplicate assays, read-out: mean % residual activity
Method: as §1, §2, §3

[5] = target: ERK5 (Homo sapiens (Human), UniProt Q13164); assay: ICKP protein kinase panel screening; type: biochemical; conditions: duplicate assays, read-out: mean % residual activity
Method: as §1, §2, §3

[6] = target: ERK2 (Homo sapiens (Human), UniProt P28482); assay: ICKP protein kinase panel screening; type: biochemical; conditions: duplicate assays, read-out: mean % residual activity
Method: as §1, §2, §3

[7] = target: JNK3 (Homo sapiens (Human), UniProt P53779); assay: ICKP protein kinase panel screening; type: biochemical; conditions: duplicate assays, read-out: mean % residual activity
Method: as §1, §2, §3

[8] = target: CDK2-Cyclin A (Homo sapiens (Human), UniProt P24941); assay: ICKP protein kinase panel screening; type: biochemical; conditions: duplicate assays, read-out: mean % residual activity
Method: as §1, §2, §3

[9] = target: CDK5 (Homo sapiens (Human), UniProt Q00535); assay: ICKP protein kinase panel screening; type: biochemical; conditions: duplicate assays, read-out: mean % residual activity
Method: as §1, §2, §3

[10] = target: ERK1 (Homo sapiens (Human), UniProt P27361); assay: ICKP protein kinase panel screening; type: biochemical; conditions: duplicate assays, read-out: mean % residual activity
Method: as §1, §2, §3

[11] = target: ERK8 (Homo sapiens (Human), UniProt Q8TD08); assay: ICKP protein kinase panel screening; type: biochemical; conditions: duplicate assays, read-out: mean % residual activity
Method: as §1, §2, §3

[12] = target: p38d MAPK (Homo sapiens (Human), UniProt O15264); assay: ICKP protein kinase panel screening; type: biochemical; conditions: duplicate assays, read-out: mean % residual activity
Method: as §1, §2, §3

[13] = target: JNK1 (Homo sapiens (Human), UniProt P45983); assay: ICKP protein kinase panel screening; type: biochemical; conditions: 1 μM, duplicate assays, read-out: mean % residual activity
Method: (§4) FIG. 3 illustrates the human kinome. Compound 69 was evaluated at the International Center For Kinase Profiling (ICKP, Dundee, Scotland) toward a panel of 50 protein kinases that provide a representative sampling of the human kinome. The results were expressed as the mean percentage of residual activity at 10 μM concentration (duplicate assays). Small disks: ≥65%, larger disk: 19%. The black square indicates the kinome region containing protein kinases evaluated in a second screening (FIG. 4, Table 4). The tree was generated using the Kinome Render software, and the illustration reproduced courtesy of Cell Signaling Technology, Inc. (www.cellsignal.com) Chartier et al PeerJ 2013, 1:e126.
as §1, §2
(§5) Studies were undertaken to identify the possible biological target(s) of compound 69. The activation in neurons of PK such as PKCγ, ERK or p38 MAPK can contribute to pain hypersensitivity. Therefore, it was decided to screen compound 69 toward a panel of 50 PKs that provide a representative sampling of the human kinome (FIG. 3, Table 3) (Biochem. J. 2007, 408, 297-315). In this panel, p38α MAPK was identified as the privileged target, with 19% of kinase residual activity at 10 μM compound concentration.
as §3

[14] = target: p38a MAPK (Homo sapiens (Human), UniProt Q16539); assay: ICKP protein kinase panel screening; type: biochemical; conditions: 1 μM, duplicate assays, read-out: mean % residual activity
Method: as §4, §1, §2, §5, §3

[15] = system: inflammatory MA (face CFA model); assay: Face Complete Freund's Adjuvant (CFA) model of inflammatory mechanical allodynia; type: in vivo; conditions: rat, intracisternal 5 μL at 100 μM
Method: FIG. 1 illustrates the results obtained by the intracisternal application of compounds 19-24, 66-72 and 74-82. These compounds prevent face MA in a rat model of inflammatory pain (Complete Freund's Adjuvant (CFA), n=4-6 rats for each compound). For this assay, compounds (5 μL at 100 μM) or control vehicle were intra-cisternally administred 30 min before CFA injection.
Face Complete Freund's Adjuvant (CFA) Model.
CFA (Becton Dickinson) was dissolved in saline solution containing Tween 80 and paraffin oil and conserved at 4° C. For the behavioral tests, animals were briefly (<2 min) anesthetized using a mask with 2% isoflurane and received a subcutaneous injection of 25 μL of CFA (2.5 mg/kg) solution into the right vibrissa pad using a 27 Ga needle coupled to a 25 μL Hamilton syringe, as described previously. After injection, animals were awakened from anesthesia and placed in the behavioral experimental room, followed by a 120 min mechanical testing period.
Intracisternal Injection:
For investigating the effects of synthetized compounds upon mechanical allodynia, animals were briefly (<2 min) anesthetized using a mask with 2% isoflurane and received an intracisternal injection of 5 μL of compound (100 μM) or vehicle alone (saline+1% DMSO) using a 10 μL Hamilton syringe. After recovery (<2 min), rats were placed in an observation field (0.6×0.6 m square) under red light for a period test. 6-g von Frey filament was gently applied every 15 or 30 min onto the orofacial region by a first experimenter. The behavioral responses were observed and quantified by a second experimenter (see below).
Behavioral Responses to Normally Innocuous (6-g Von Frey Filament) Mechanical Stimulation.
The behavioral responses procedure was previously developed by Vos et al. 1994. A rat's response to mechanical stimulation consisted of one or more of the following elements: (1) detection, rat turn head toward stimulus; (2) withdrawal reaction, rat pull paw away or turn head away or pull it briskly backward when stimulation is applied (a withdrawal reaction is assumed to include a detection element preceding the head withdrawal and therefore consists of two responses elements); (3) escape/attack, rats avoid further contact with the stimulus, either passively by moving their bodies away from the stimulus, or actively by attacking the tip of the […]; (4) asymmetric grooming, rats display an uninterrupted series of at least three wash strokes directed to the stimulated area.
The in vivo efficacy of some compounds was evaluated on a rat model of inflammatory MA (face CFA model; Alba-Delgado et al J. Neurosci. 2018, 38, 10489-10504) (FIG. 1). After receiving a subcutaneous injection of 25 μL of CFA (2.5 mg/kg) into the right vibrissa pad, rats develop a MA that lasts days. […] In this model of inflammatory MA, MA was suppressed in compound 69 treated rats, in comparison to animals treated with vehicle (FIG. 2A).

[16] = target: p38α MAPK (Homo sapiens (Human), UniProt Q16539); assay: p38 alpha IC50; type: biochemical
Method: as §5, §3

Chain of p38α MAPK (Q16539 whole entry): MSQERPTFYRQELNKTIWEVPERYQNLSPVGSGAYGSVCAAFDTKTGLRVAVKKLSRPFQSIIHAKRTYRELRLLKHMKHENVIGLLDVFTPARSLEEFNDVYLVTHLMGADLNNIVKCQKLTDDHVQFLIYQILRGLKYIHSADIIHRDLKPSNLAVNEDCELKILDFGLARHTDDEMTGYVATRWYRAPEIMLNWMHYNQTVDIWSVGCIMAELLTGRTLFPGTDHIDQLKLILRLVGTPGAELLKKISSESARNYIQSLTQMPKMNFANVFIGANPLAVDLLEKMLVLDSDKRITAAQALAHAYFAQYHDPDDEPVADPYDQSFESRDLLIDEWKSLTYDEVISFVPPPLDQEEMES
Chain of JNK1 (P45983 whole entry): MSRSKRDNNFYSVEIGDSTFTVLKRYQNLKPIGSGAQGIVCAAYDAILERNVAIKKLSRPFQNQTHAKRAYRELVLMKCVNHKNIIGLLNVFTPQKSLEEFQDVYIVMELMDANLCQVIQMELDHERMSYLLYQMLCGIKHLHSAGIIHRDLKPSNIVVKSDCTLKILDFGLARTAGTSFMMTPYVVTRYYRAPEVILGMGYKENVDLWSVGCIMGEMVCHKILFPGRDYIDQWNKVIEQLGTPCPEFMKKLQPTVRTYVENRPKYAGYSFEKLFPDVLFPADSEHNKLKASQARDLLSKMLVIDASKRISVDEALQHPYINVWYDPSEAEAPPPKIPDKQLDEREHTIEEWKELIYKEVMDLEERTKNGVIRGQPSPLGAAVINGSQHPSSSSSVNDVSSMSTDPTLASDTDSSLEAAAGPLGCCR
Chain of JNK2 (P45984 whole entry): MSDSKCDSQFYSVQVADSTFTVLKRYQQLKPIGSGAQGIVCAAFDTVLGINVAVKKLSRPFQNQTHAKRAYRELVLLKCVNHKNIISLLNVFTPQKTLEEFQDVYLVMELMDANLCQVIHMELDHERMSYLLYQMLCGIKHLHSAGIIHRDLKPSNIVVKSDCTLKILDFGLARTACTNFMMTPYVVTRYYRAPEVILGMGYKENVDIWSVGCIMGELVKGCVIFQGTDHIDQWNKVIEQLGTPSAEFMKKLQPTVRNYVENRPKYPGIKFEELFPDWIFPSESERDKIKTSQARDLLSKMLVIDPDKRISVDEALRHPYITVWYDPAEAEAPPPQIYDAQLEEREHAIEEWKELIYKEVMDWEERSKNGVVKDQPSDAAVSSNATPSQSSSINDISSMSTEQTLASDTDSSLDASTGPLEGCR
Chain of JNK3 (P53779 whole entry): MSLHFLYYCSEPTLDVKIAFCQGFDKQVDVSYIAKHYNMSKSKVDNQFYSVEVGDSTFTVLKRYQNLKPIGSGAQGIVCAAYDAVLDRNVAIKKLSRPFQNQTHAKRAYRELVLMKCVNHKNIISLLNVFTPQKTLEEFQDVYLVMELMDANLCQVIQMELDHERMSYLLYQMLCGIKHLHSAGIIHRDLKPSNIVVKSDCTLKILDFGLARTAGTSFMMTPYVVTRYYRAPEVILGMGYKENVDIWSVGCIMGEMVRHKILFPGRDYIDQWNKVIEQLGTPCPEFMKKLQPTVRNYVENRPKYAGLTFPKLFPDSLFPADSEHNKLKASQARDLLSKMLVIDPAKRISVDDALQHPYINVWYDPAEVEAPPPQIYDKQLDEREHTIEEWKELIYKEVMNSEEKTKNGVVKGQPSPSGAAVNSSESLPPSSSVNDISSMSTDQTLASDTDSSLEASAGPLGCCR
Chain of p38a MAPK (Q16539 whole entry): as the sequence (Q16539 whole entry) above
Chain of ERK5 (Q13164 whole entry): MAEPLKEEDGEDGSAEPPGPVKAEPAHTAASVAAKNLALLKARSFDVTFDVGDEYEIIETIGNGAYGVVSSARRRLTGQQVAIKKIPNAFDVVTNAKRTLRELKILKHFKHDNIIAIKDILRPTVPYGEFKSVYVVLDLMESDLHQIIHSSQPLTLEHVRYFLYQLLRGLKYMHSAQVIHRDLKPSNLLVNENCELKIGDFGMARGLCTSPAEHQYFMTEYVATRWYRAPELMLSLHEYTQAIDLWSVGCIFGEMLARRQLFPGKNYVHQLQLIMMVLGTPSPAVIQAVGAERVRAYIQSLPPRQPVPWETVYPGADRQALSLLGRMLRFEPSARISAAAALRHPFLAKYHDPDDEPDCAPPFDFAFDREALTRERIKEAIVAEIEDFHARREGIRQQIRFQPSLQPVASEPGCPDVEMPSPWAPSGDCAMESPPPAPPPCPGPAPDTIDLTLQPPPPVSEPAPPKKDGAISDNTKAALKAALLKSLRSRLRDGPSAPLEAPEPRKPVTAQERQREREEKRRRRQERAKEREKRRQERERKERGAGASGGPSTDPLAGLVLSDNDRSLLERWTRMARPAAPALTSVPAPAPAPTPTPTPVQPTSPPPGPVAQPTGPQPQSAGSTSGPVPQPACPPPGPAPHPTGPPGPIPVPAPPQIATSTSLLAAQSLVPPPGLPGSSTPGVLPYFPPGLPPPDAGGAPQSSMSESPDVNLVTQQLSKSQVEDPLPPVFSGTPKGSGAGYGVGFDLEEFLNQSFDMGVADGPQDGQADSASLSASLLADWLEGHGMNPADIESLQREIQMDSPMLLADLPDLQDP
Chain of ERK2 (P28482 whole entry): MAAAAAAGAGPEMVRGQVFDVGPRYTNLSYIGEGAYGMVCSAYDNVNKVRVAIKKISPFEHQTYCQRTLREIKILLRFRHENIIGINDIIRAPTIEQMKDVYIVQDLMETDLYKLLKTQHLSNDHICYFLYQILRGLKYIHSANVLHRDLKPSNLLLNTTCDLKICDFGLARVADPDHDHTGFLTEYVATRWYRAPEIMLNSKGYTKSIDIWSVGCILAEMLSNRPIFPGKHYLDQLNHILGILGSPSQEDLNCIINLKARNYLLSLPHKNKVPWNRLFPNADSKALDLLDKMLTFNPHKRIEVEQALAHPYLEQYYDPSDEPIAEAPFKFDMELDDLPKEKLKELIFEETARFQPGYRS
Chain of p38b MAPK (Q15759 whole entry): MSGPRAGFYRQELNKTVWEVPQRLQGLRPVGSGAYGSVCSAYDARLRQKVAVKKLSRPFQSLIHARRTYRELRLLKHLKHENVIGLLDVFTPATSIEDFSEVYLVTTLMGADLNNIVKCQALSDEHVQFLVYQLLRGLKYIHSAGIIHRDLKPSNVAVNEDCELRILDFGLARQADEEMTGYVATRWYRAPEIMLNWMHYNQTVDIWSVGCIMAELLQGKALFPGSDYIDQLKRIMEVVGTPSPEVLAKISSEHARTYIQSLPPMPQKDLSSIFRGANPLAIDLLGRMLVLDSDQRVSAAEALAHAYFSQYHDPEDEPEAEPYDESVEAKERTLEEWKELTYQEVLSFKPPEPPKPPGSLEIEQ
Chain of p38g MAPK (P53778 whole entry): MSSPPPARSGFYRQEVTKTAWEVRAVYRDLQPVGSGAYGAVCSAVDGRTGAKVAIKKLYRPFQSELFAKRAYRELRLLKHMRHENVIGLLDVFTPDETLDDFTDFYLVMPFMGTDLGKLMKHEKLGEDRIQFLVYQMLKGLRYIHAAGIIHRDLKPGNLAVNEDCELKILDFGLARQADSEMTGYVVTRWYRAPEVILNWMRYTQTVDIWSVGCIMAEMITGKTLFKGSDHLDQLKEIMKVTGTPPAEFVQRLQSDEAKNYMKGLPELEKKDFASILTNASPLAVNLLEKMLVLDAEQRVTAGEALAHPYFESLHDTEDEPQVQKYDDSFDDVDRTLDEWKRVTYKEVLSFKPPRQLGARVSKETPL
Chain of CDK5 (Q00535 whole entry): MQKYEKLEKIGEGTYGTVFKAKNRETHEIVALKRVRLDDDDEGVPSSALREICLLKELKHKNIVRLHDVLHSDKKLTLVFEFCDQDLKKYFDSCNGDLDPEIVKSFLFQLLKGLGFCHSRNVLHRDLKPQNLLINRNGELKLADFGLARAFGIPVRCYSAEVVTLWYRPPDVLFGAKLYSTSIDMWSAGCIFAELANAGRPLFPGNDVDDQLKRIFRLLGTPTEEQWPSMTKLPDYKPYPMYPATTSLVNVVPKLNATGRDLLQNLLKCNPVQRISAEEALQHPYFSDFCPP
Chain of CDK5 (Q15078 whole entry partner): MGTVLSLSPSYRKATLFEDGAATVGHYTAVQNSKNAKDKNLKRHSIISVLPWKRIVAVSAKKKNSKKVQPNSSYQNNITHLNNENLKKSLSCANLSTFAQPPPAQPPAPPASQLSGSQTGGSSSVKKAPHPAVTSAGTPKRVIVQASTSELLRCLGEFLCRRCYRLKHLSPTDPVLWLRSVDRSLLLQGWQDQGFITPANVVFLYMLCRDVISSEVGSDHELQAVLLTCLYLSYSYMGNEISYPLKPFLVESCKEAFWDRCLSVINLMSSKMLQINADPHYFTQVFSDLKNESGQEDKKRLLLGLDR
Chain of ERK1 (P27361 whole entry): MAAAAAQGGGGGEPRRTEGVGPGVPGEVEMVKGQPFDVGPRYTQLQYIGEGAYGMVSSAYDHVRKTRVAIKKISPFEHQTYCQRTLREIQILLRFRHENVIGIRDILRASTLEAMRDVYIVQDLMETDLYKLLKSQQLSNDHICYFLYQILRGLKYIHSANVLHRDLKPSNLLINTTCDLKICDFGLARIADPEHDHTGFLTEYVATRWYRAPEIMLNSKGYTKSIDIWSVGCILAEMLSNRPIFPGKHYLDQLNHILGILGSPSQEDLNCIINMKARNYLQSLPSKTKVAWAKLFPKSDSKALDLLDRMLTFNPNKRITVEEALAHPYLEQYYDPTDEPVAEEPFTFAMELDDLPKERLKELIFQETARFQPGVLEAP

remaining activity at 1 µM [2]: 103%
remaining activity at 1 µM [3]: 107%
remaining activity at 1 µM [4]: 112%
remaining activity at 1 µM [5]: 113%
remaining activity at 1 µM [6]: 108%
remaining activity at 1 µM [7]: 98%
remaining activity at 1 µM [8]: 111%
remaining activity at 1 µM [9]: 101%
remaining activity at 1 µM [10]: 122%
remaining activity at 1 µM [12]: 113%
remaining activity at 1 µM [13]: 94%
remaining activity at 1 µM [14]: 59%
IC50 ([16]; p38 alpha, read-out: Mean IC50): 3.03 µM
IC50 ([16]; read-out: IC50 toward p38α MAPK): 3 ± 0.1 µM
Structure (SMILES): O=c1[nH]cc(Nc2ccccc2)cc1-c1cccc2[nH]ccc12 [Compound 67, 3-(1H-Indol-4-yl)-5-(phenylamino)pyridin-2(1H)-one]
mean percentage of residual activity, other kinases of the panel (small disks) ([1]; all kinases except p38α MAPK): ≥ 90%
selectivity for p38α MAPK over the other protein kinases incl. p38 isoforms ([1]; panel of 13 kinases): same selectivity profile; also recorded: selective p38α MAPK inhibitor
remaining activity at 1 µM [11]: 128%
prevention of inflammatory MA (allodynic score, 6-g von Frey filament) ([15]; 30 min before CFA): strong anti-allodynic activity; also recorded: most active
inhibition of inflammatory MA ([15]; 30 min before CFA injection): 98%
